The source made the active and inactive calls.
What was measured:
[1] = molecular target: Beta Lactamase (Pseudomonas aeruginosa, UniProt Q932Y6); assay: BLA reporter interference, concentration series – BLA reporter cells, FRET fluorescence, artefact control for TLR9-MyD88 binding inhibitor project, dose response (AID 588341); type: cell-based;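 note: cell based assay in CHO-K1 cells stably expressing beta-lactamase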
[2] = non-specific 3'UTR reporter inhibition in Clone20-Shn3RL – cell-based, Renilla luciferase, cherry-picked, counter-screen for Shn3 inhibitor project, dose response (AID 624133); type: functional
[3] = molecular target: Fatty acid synthase (Homo sapiens, UniProt P49327); assay: inhibition of human FAS-TE enzyme activity – biochemical, endpoint fluorescence intensity, uHTS hits, dose response (AID 624327); type: functional;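 note: fluorescence from hydrolysis of an O-methyl fluorescein acyl ester substrate by the enzyme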
[4] = viability loss in HeLa cells – cytotoxicity control for MgcRacGAP inhibitor project, dose response (AID 624300); type: functional
[5] = molecular target: T1, RNA-binding protein pos-1 (Caenorhabditis elegans, UniProt G5EF15); assay: disruptors of C. elegans POS-1 RNA interaction – biochemical, fluorescence polarization, dose response (AID 1964);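 note: purified POS-1 fused to maltose binding protein made in E. coli; potency of compounds blocking POS-1 binding to fluorescent RNA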
T1 sequence (G5EF15 whole entry): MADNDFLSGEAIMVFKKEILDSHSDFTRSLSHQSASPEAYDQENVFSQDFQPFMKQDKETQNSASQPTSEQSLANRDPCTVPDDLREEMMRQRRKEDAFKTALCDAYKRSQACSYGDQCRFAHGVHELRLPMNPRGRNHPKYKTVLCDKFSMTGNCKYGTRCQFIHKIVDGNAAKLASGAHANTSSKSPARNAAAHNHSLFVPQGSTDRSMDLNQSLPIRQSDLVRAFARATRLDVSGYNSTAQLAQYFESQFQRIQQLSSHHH

[6] = molecular target: T2, Zinc finger protein mex-5 (Caenorhabditis elegans, UniProt Q9XUB2); assay: potency of MEX-5 RNA-binding blockers – biochemical, C. elegans, fluorescence polarization, dose response (AID 1960)
T2 sequence (Q9XUB2 whole entry): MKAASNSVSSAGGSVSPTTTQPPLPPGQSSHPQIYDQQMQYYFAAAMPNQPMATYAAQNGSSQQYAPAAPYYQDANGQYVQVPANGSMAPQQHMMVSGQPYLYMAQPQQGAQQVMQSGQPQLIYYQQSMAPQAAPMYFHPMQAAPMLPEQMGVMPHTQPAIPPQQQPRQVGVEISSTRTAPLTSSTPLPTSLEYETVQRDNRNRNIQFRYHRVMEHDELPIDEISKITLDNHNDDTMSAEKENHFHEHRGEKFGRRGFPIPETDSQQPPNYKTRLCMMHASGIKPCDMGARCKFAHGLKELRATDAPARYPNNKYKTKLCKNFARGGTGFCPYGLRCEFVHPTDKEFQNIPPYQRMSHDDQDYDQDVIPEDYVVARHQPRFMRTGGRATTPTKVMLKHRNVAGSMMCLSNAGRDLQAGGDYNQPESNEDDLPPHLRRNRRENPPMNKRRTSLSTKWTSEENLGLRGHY

[7] = NIH3T3 cell viability loss – ATP luminescence, mouse fibroblasts, counter-screen, dose response (AID 2010); type: functional, cell-based;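 note: cells exposed to compound for about 90 hours before reading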
[8] = blockers of HIV-1 envelope-mediated cell-cell fusion – cherry-pick, dose response (AID 652057); type: functional, cell-based
[9] = cells
[10] = molecular target: T3, Sentrin-specific protease 7 (Homo sapiens, UniProt Q9BQF6); type: functional;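 note: Luminescence-based dose-response confirmation of ultra-high-throughput screening hits, measuring inhibition of SENP7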
T3 sequence (Q9BQF6 whole entry): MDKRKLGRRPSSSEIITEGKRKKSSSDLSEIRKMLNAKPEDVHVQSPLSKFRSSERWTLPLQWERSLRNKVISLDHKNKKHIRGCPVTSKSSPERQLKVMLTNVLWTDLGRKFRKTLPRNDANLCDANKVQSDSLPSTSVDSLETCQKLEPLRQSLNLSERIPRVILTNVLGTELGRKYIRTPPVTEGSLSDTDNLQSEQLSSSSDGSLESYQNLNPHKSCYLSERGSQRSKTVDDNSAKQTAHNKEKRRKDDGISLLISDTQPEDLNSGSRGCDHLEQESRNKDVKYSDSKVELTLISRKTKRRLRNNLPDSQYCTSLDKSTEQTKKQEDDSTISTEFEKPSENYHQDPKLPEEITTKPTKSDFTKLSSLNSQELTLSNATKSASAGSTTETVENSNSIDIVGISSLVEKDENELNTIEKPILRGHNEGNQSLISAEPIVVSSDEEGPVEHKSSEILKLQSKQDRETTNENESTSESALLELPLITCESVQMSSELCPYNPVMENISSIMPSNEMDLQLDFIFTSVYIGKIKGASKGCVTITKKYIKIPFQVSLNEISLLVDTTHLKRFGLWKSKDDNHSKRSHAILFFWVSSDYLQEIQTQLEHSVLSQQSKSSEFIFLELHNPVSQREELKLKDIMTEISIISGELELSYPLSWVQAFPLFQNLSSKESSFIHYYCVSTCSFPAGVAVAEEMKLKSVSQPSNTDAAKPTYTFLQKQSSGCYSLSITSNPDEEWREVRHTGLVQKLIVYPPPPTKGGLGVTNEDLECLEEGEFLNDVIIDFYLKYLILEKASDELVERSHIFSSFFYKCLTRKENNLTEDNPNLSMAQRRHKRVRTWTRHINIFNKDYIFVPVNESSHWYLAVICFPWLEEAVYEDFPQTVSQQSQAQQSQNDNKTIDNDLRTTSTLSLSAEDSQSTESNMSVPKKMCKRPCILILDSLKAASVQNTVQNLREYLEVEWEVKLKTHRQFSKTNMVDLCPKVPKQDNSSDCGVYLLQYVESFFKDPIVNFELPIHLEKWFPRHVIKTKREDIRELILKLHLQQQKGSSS

[11] = molecular target: T4, Sentrin-specific protease 8 (Homo sapiens, UniProt Q96LD8); type: functional;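 note: luminescence read-out of SENP8 inhibition, dose-response confirmation following an ultra-high-throughput screen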
T4 sequence (Q96LD8 whole entry): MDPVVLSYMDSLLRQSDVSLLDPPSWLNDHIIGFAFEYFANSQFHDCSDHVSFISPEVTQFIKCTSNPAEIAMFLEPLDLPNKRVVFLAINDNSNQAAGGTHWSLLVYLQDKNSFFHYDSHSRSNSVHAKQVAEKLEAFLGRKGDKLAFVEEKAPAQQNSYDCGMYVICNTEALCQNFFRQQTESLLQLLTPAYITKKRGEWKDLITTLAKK

[12] = molecular target: Ras and Rab interactor 1/Tyrosine-protein kinase ABL1 (Homo sapiens, UniProt P00519+Q13671); type: functional;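 note: biochemical TR-FRET dose-response test measuring inhibition of binding between Rin1 and Abl proteins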
Chain of Ras and Rab interactor 1/Tyrosine-protein kinase ABL1 (P00519 whole entry): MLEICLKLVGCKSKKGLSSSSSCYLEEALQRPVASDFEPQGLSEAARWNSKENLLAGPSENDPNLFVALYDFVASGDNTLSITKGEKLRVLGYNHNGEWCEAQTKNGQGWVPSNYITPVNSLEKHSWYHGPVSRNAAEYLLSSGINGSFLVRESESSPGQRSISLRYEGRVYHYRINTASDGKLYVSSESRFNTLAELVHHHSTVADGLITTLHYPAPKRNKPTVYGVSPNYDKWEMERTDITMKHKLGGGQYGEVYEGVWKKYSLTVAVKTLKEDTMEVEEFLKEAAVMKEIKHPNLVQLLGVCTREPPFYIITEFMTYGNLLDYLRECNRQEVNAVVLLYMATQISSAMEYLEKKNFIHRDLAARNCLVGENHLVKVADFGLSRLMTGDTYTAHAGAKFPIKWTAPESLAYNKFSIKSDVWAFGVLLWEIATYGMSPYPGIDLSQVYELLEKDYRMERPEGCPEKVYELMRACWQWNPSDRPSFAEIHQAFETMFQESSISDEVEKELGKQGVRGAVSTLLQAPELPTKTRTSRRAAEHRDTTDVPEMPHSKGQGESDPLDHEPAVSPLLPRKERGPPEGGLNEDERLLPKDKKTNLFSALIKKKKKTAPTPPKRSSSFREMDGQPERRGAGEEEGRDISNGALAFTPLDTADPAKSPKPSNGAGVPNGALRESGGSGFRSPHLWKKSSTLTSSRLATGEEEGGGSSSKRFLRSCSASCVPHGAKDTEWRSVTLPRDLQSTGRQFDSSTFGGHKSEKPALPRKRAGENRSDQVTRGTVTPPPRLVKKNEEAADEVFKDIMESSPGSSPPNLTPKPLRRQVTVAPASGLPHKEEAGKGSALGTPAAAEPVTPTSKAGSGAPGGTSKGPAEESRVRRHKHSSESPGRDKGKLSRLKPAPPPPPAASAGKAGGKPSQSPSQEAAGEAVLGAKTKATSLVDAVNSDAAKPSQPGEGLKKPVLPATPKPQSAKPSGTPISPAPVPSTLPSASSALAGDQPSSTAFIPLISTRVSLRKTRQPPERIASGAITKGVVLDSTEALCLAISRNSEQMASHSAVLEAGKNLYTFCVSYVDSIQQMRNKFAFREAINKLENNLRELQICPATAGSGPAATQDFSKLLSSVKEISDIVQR
Chain of Ras and Rab interactor 1/Tyrosine-protein kinase ABL1 (Q13671 whole entry): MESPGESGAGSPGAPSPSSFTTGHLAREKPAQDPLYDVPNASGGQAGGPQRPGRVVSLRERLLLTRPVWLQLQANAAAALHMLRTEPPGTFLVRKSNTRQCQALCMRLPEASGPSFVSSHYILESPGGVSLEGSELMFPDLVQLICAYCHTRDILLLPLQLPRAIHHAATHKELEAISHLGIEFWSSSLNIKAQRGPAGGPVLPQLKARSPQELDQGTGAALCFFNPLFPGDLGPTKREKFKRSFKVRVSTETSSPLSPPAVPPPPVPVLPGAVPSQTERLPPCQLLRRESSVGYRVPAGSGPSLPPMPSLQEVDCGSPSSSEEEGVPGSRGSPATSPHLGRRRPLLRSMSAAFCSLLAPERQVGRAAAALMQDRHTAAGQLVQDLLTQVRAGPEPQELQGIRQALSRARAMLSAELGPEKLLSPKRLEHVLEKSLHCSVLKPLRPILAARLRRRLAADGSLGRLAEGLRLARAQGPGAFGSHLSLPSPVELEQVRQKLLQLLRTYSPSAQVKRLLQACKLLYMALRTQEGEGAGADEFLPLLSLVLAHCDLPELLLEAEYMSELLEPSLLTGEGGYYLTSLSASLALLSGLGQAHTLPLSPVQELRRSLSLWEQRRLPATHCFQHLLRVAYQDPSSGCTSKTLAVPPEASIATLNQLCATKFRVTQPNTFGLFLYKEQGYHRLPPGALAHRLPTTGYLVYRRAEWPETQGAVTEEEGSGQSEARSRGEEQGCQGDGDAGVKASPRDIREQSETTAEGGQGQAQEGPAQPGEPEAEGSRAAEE

[13] = molecular target: RNA-editing ligase 1, mitochondrial (Trypanosoma brucei brucei, UniProt P86926); assay: inhibition of trypanosome RNA editing ligase – biochemical, fluorescence, Trypanosoma brucei, dose response (AID 1117295); type: functional
[14] = molecular target: Peroxisome proliferator-activated receptor gamma/Nuclear receptor coactivator 2 (Homo sapiens, UniProt P37231); type: functional;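 note: agonist potency for raising coactivator recruitment to the receptor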
[15] = molecular target: Peroxisome proliferator-activated receptor gamma/Nuclear receptor coactivator 1 (Homo sapiens, UniProt P37231); type: functional;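 note: agonist potency as compounds enhance coactivator SRC-1 recruitment to PPARgamma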
[16] = molecular target: Voltage-gated N-type calcium channel alpha-1B subunit/Amyloid beta A4 precursor protein-binding family A member 1 (Homo sapiens, UniProt Q00975+Q02410); type: protein assay
Chain of Voltage-gated N-type calcium channel alpha-1B subunit/Amyloid beta A4 precursor protein-binding family A member 1 (Q00975 whole entry): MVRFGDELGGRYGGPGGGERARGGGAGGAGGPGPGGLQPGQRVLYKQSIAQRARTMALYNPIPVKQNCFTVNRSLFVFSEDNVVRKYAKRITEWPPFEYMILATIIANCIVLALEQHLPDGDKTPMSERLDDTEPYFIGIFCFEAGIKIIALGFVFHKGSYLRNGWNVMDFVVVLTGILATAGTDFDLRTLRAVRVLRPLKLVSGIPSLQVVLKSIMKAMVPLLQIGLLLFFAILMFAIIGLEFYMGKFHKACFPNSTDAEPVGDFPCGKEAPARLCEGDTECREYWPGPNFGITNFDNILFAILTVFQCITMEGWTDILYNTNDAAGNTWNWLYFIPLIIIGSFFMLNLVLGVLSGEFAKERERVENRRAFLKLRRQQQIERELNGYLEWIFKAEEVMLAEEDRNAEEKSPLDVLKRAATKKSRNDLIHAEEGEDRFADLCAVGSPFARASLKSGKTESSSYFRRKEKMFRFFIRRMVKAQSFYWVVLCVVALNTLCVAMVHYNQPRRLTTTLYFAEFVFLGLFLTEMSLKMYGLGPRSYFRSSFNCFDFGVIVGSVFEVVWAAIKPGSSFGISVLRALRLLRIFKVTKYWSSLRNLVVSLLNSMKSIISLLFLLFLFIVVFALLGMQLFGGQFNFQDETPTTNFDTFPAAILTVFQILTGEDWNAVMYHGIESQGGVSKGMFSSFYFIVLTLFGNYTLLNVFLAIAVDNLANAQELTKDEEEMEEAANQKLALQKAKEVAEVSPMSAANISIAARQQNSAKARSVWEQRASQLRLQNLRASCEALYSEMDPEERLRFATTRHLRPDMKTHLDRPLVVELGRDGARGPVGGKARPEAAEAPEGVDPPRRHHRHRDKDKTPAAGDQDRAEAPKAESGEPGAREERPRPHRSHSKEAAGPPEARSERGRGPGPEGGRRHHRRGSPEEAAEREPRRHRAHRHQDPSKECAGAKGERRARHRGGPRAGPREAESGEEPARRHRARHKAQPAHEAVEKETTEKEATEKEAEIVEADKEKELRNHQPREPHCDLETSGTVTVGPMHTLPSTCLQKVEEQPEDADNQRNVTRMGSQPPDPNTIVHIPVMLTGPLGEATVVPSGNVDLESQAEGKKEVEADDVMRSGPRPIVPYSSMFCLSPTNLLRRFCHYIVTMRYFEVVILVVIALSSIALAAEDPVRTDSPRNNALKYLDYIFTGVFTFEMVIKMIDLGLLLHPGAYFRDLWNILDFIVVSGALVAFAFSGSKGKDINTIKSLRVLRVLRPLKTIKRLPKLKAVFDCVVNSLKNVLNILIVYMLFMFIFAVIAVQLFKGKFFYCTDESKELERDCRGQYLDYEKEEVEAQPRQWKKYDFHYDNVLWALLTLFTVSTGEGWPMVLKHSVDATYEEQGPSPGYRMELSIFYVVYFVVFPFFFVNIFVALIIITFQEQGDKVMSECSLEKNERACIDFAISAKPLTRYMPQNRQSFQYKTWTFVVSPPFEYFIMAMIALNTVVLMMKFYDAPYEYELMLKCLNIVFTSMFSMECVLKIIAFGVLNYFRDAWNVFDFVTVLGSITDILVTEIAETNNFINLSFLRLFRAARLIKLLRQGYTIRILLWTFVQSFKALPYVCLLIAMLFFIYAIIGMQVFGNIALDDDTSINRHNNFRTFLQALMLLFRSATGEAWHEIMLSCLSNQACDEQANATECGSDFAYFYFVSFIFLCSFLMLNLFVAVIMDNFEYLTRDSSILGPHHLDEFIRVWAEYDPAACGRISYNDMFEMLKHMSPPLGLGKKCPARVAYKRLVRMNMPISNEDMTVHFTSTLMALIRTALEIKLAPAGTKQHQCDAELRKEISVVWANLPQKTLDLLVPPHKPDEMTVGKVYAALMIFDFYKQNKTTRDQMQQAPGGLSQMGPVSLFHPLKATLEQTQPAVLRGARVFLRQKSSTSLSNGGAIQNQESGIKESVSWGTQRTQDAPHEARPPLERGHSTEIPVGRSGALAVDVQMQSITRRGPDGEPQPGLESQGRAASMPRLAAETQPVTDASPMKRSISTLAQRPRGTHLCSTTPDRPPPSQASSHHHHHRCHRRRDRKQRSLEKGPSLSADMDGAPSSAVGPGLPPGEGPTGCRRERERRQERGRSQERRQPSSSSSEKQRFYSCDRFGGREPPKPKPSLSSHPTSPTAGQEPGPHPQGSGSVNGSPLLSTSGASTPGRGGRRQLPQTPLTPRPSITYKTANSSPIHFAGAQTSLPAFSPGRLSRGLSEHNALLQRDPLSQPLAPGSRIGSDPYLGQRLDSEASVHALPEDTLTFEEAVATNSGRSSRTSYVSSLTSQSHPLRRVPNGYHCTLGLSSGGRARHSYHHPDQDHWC
Chain of Voltage-gated N-type calcium channel alpha-1B subunit/Amyloid beta A4 precursor protein-binding family A member 1 (Q02410 whole entry): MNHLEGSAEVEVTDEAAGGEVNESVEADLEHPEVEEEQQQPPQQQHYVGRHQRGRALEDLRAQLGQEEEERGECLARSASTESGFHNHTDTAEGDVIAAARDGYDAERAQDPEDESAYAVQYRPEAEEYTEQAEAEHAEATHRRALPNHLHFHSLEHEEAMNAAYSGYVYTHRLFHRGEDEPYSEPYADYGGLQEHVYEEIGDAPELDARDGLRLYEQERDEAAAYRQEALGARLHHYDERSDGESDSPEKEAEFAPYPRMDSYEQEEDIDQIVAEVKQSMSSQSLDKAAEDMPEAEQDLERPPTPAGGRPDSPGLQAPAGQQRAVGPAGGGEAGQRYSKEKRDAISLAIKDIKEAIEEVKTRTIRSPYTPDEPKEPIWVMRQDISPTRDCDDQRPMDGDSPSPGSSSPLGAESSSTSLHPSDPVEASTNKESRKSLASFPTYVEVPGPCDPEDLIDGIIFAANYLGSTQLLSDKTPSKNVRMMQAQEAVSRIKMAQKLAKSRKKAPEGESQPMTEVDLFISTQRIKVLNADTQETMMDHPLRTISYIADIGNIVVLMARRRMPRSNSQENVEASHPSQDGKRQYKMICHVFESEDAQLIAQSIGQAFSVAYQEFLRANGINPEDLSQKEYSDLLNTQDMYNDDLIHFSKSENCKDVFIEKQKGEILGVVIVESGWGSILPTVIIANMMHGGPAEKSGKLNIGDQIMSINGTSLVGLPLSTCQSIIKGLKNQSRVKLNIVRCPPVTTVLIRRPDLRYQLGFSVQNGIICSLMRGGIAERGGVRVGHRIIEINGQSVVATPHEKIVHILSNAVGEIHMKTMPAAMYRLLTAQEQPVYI

[17] = viability of HCT116 lacking mutant beta-catenin – cell-based, human colon tumor, dose response (AID 1045); type: functional;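 note: HCT116 colon tumor cells with beta catenin knocked out; cells exposed to compound for 60 hours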

## O=C(Nc1ccccc1Cl)/C(Cl)=C(\Cl)[S+]([O-])c1ccccc1 (stereo not drawn)
[1]
  IC50: > 5.53 µM (active)
[2]
  AC50: 5.77 µM (active)
[3]
  IC50: 4.66 µM (active)
[4]
  CC50: 28.9 µM (active)

## CCCCCCCCCCCCCCCCn1cc[n+](C)c1
[5]
  EC50: > 300 µM (not active)
[6]
  EC50: > 300 µM (inconclusive)
[7]; NIH3T3
  EC50: 8.99 µM (active)
[7]; nih3t3
  EC50: 8.81 µM (active)
[8]
  AC50: 22 µM (active)
[9]
  EC50: 0.44 µM (active)

## O=C(NC1(O)C(=O)c2ccccc2C1=O)c1ccccc1
[10]
  IC50: 2.99 µM (active)
[11]
  IC50: 4.39 µM (active)
[12]
  IC50: 25.5 µM (inactive)
[13]
  IC50: 13.7 µM (inactive)

## Cc1cc(C)nc(/N=c2/ssnc2Cl)c1
[14]
  EC50: > 79.4 µM (not active)
[15]
  EC50: > 79.4 µM (not active)
[16]
  IC50: 10.6 µM (active)
[17]
  EC50: 25.8 µM (active)

Source: ChEMBL document CHEMBL1201862, “PubChem BioAssay data set” (2004)
